What was measured:
HCV NS5B = target: T1, HCV NS5B (Hepatitis C virus genotype 1b, UniProt Q9WMX2); experiment: HCV NS5B RdRp enzyme assay (standard or modified); type: biochemical; conditions: HCV NS5B RdRp genotype 1b enzyme; standard or modified assay not stated
T1 construct: The protein was expressed with an 18 amino acid C-terminal truncation to enhance the solubility; made in house; host or cells: E. coli BL21(DE3), pET21a
Description: HCV NS5B RdRp cloning, expression, and purification. The cDNA encoding the NS5B protein of HCV, genotype 1b, was cloned into the pET21a expression vector. The protein was expressed with an 18 amino acid C-terminal truncation to enhance the solubility. The E. coli competent cell line BL21(DE3) was used for expression of the protein. Cultures were grown at 37° C. for ˜4 hours until the cultures reached an optical density of 2.0 at 600 nm. The cultures were cooled to 20° C. and induced with 1 mM IPTG. Fresh ampicillin was added to a final concentration of 50 μg/ml and the cells were grown overnight at 20° C.
Cell pellets (3 L) were lysed for purification to yield 15-24 mgs of purified NS5B. The lysis buffer consisted of 20 mM Tris-HCl, pH 7.4, 500 mM NaCl, 0.5% triton X-100, 1 mM DTT, 1 mM EDTA, 20% glycerol, 0.5 mg/ml lysozyme, 10 mM MgCl2, 15 ug/ml deoxyribonuclease I, and Complete TM protease inhibitor tablets (Roche). After addition of the lysis buffer, frozen cell pellets were resuspended using a tissue homogenizer. To reduce the viscosity of the sample, aliquots of the lysate were sonicated on ice using a microtip attached to a Branson sonicator. The sonicated lysate was centrifuged at 100,000×g for 1 hr at 4° C. and filtered through a 0.2 μm filter unit (Corning).
The protein was purified using two sequential chromatography steps: Heparin sepharose CL-6B and polyU sepharose 4B (Pharmacia). The chromatography buffers were identical to the lysis buffer but contained no lysozyme, deoxyribonuclease I, MgCl2 or protease inhibitor and the NaCl concentration of the buffer was adjusted according to the requirements for charging the protein onto the column. Each column was eluted with a NaCl gradient which varied in length from 5-50 column volumes depending on the column type. After the final chromatography step, the resulting purity of the enzyme is >90% based on SDS-PAGE analysis. The enzyme was aliquoted and stored at −80° C.
Standard HCV NS5B RdRp enzyme assay. HCV RdRp genotype 1b assays were run in a final volume of 60 μl in 96 well plates (Corning 3600). The assay buffer is composed of 20 mM Hepes, pH 7.5, 2.5 mM KCl, 2.5 mM MgCl2, 1 mM DTT, 1.6 U RNAse inhibitor (Promega N2515), 0.01 mg/ml BSA (Sigma B6917), and 2% glycerol. All compounds were serially diluted (3-fold) in DMSO and diluted further in water such that the final concentration of DMSO in the assay was 2%. HCV RdRp genotype 1b enzyme was used at a final concentration of 28 nM. A polyA template was used at 6 nM, and a biotinylated oligo-dT12 primer was used at 180 nM final concentration. Template was obtained commercially (Amersham 27-4110). Biotinylated primer was prepared by Sigma Genosys. 3H-UTP was used at 0.6 μCi (0.29 μM total UTP). Reactions were initiated by the addition of enzyme, incubated at 30° C. for 60 min, and stopped by adding 25 μl of 50 mM EDTA containing SPA beads (4 μg/μl, Amersham RPNQ 0007). Plates were read on a Packard Top Count NXT after >1 hr incubation at room temperature.
Modified HCV NS5B RdRp enzyme assay. A modified enzyme assay was performed essentially as described for the standard enzyme assay except for the following: The biotinylated oligo dT12 primer was precaptured on streptavidin-coated SPA beads by mixing primer and beads in assay buffer and incubating at room temperature for one hour. Unbound primer was removed after centrifugation. The primer-bound beads were resuspended in 20 mM Hepes buffer, pH 7.5 and used in the assay at final concentrations of 20 nM primer and 0.67 μg/μl beads. Order of addition in the assay: enzyme (1.75 nM) was added to diluted compound followed by the addition of a mixture of template (0.36 nM), 3H-UTP (0.6 μCi, 0.29 μM), and primer-bound beads, to initiate the reaction; concentrations given are final. Reactions were allowed to proceed for 4 hours at 30° C.
IC50 values for compounds were determined using seven different [I]. […]

HCV replicon cells = experiment: HCV replicon FRET / luciferase assay; type: cell-based; conditions: 50% reduction in FRET or luciferase activity
Description: FRET Assay Preparation. The HCV FRET screening assay was performed in 96-well cell culture plates. The FRET peptide (Anaspec, Inc.) (Taliani et al., Anal. Biochem. 1996, 240, 60-67) contains a fluorescence donor, EDANS, near one end of the peptide and an acceptor, DABCYL, near the other end. The fluorescence of the peptide is quenched by […] resonance energy transfer (RET) between the donor and the acceptor, but as the NS3 protease cleaves the peptide the products are released from RET quenching and the fluorescence of the donor becomes apparent. The assay reagent was made as follows: 5× cell Luciferase cell culture lysis reagent from Promega (#E153A) diluted to 1× with dH2O, NaCl added to 150 mM final, the FRET peptide diluted to 20 μM final from a 2 mM stock.
To prepare plates, HCV replicon cells, with or without a Renilla luciferase reporter gene, were trypsinized and plated in a 96-well plate with titrated test compounds added in columns 3 through 12; columns 1 and 2 contained a control compound (HCV control inhibitor), and the bottom row contained cells with DMSO only. The plates were then placed in a CO2 incubator at 37° C.
Assays. Subsequent to addition of the test compounds described above (FRET Assay Preparation), at various times the plate was removed and Alamar blue solution (Trek Diagnostics, #00-100) was added to measure cellular toxicity. After reading in a Cytoflour 4000 instrument (PE Biosystems), plates were rinsed with PBS and then used for FRET assay by the addition of 30 ul of the FRET peptide assay reagent described above (FRET Assay Preparation) per well. The plate was then placed into the Cytoflour 4000 instrument which had been set to 340 excite/490 emission, automatic mode for up to 20 cycles and the plate read in a kinetic mode. Typically, the signal to noise using an endpoint analysis after the reads was at least three-fold. Alternatively, after Alamar blue reading, plates were rinsed with PBS, then used for luciferase assay using the Promega Dual-Glo Luciferase Assay System or the Promega EnduRen Live Cell Substrate assay.
Compound analysis was performed by quantification of the relative HCV replicon inhibition and the relative cytotoxicity values. To calculate cytoxicity values, the average Alamar Blue fluorescence signals from the control wells were set as 100% non-toxic. The individual signals in each of the compound test wells were then divided by the average control signal and multiplied by 100% to determine […]. To calculate the HCV replicon inhibition values, an average background value was obtained from the two wells containing the highest amount of HCV control inhibitor at the end of the assay period. These numbers were similar to those obtained from naïve Huh-7 cells. The background numbers were then subtracted from the average signal obtained from the control wells and this number was used as 100% activity. The individual signals in each of the compound test wells were then divided by the averaged control values after background subtraction and multiplied by 100% to determine percent activity. EC50 values were calculated as the concentration which caused a 50% reduction in FRET or luciferase activity. The two numbers generated for the compound plate, percent cytoxicity and percent activity, were used to determine compounds of interest for further analysis.

T1 sequence (Q9WMX2 2420-2992): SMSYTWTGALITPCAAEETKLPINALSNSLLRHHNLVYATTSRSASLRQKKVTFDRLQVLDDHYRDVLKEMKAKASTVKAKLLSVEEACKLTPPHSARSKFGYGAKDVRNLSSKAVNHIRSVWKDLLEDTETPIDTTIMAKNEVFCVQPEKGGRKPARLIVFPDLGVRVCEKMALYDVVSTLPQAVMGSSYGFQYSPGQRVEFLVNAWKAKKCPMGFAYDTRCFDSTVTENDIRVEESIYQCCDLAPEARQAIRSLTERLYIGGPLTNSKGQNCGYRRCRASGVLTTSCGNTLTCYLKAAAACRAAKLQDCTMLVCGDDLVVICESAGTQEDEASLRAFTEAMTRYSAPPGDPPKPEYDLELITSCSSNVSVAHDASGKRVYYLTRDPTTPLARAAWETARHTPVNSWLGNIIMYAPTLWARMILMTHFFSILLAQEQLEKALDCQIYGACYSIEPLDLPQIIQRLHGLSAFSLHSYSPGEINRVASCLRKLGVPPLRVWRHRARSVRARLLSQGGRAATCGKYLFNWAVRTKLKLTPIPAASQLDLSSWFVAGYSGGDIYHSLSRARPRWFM

| SMILES | IC50 (HCV NS5B) | EC50 (HCV replicon cells; Hepatitis C virus) | EC50 (HCV replicon cells) |
| --- | --- | --- | --- |
| COc1ccc2c(c1)C1CC1(C(=O)N1CCC[C@H]3CNC[C@H]31)Cn1c-2c(C2CCCCC2)c2ccc(C(=O)NS(=O)(=O)N(C)C)cc21 (some centres unmarked) | 4.58 to 500 nM | 4.58 to 500 nM |  |
| COc1ccc2c(c1)C1CC1(C(=O)N1C[C@@H]3CCCN3C[C@@H]1CC(C)C)Cn1c-2c(C2CCCCC2)c2ccc(C(=O)NS(=O)(=O)N(C)C)cc21 (some centres unmarked) | 4.58 to 500 nM | 4.58 to 500 nM |  |
| COc1ccc2c(c1)C1CC1(C(=O)N1CC3CCCNC3C1)Cn1c-2c(C2CCCCC2)c2ccc(C(=O)NS(=O)(=O)N(C)C)cc21 (centres unmarked) | 4.58 to 500 nM | 4.58 to 500 nM |  |
| COc1ccc2c(c1)C1CC1(C(=O)N1CCN3CCC[C@H]3C1)Cn1c-2c(C2CCCCC2)c2ccc(C(=O)NS(=O)(=O)C3CC3)cc21 (some centres unmarked) | 4.58 to 500 nM | 4.58 to 500 nM |  |
| COc1ccc2c(c1)C1CC1(C(=O)N1C[C@H]3CNC[C@H]3C1)Cn1c-2c(C2CCCCC2)c2ccc(C(=O)NS(=O)(=O)N(C)C)cc21 (some centres unmarked) | 4.58 to 500 nM | 4.58 to 500 nM |  |
| COc1ccc2c(c1)C1CC1(C(=O)N1CCN3CCC[C@@H]3C1)Cn1c-2c(C2CCCCC2)c2ccc(C(=O)NS(C)(=O)=O)cc21 (some centres unmarked) | 4.58 to 500 nM | 4.58 to 500 nM |  |
| COc1ccc2c(c1)C1CC1(C(=O)N1CCN3CCCC3C1)Cn1c-2c(C2CCCCC2)c2ccc(C(=O)NS(=O)(=O)C(C)C)cc21 (centres unmarked) | 4.58 to 500 nM | 4.58 to 500 nM |  |
| COc1ccc2c(c1)C1CC1(C(=O)N1CCN3CCC[C@H]3C1)Cn1c-2c(C2CCCCC2)c2ccc(C(=O)NS(=O)(=O)N3CCOCC3)cc21 (some centres unmarked) | 4.58 to 500 nM | 4.58 to 500 nM |  |
| COc1ccc2c(c1)C1CC1(C(=O)N1C[C@@H]3CCCN3C[C@@H]1Cc1ccccc1)Cn1c-2c(C2CCCCC2)c2ccc(C(=O)NS(=O)(=O)N(C)C)cc21 (some centres unmarked) | 4.58 to 500 nM | 4.58 to 500 nM |  |
| COc1ccc2c(c1)C1CC1(C(=O)N1CCN3CCC[C@H]3C1)Cn1c-2c(C2CCCCC2)c2ccc(C(=O)NS(C)(=O)=O)cc21 (some centres unmarked) | 4.58 to 500 nM | 4.58 to 500 nM |  |
| COc1ccc2c(c1)C1CC1(C(=O)N1CC3CCCN(C(=O)OC(C)(C)C)C3C1)Cn1c-2c(C2CCCCC2)c2ccc(C(=O)NS(=O)(=O)N(C)C)cc21 (centres unmarked) [drawing 20] | 4.58 to 500 nM |  | 4.58 to 500 nM |
| COc1ccc2c(c1)[C@@H]1C[C@]1(C(=O)N1CC3CCCN(C(C)=O)C3C1)Cn1c-2c(C2CCCCC2)c2ccc(C(=O)NS(=O)(=O)N(C)C)cc21 (some centres unmarked) [drawing 73] | 4.58 to 500 nM |  | 4.58 to 500 nM |
| COc1ccc2c(c1)C1CC1(C(=O)N1CC3CCCN(C(C)=O)C3C1)Cn1c-2c(C2CCCCC2)c2ccc(C(=O)NS(=O)(=O)C3CC3)cc21 (centres unmarked) [drawing 68] | 4.58 to 500 nM |  | 4.58 to 500 nM |

— patent US7521444B2, “Compounds for the treatment of hepatitis C” (Bristol-Myers Squibb Company, priority 2007, dated 2009)
